Test results taken from publication PMC6006164, “Natural cyclopeptide RA-V inhibits the NF-κB signaling pathway by targeting TAK1” (Cell Death & Disease, 2018).

Legend:
HCT116 xenograft tumors = experiment: HCT116 xenograft in nude mice; assay type: in vivo, female athymic nude BALB/c mice
Procedure: Fig. 7 RA-V inhibits tumor growth and the expression of NF-κB target genes in a nude xenograft model. a–d Inhibition of the growth of HCT116 and HepG2 xenograft tumors by RA-V. Female athymic nude BALB/c mice bearing HCT116 (n = 8) or HepG2 (n = 7) xenograft tumors were intravenously injected with various concentrations of RA-V micelles or control micelles every other day. 5-FU (10 mg/kg) group as positive control. Effects of RA-V on the growth curves of subcutaneoue xenografts of HCT116 (a) and HepG2 (b) and effects on the tumor weight in the HCT116 (c) and HepG2 (d) models. e–f Tumors removed were photographed. g–h The expression of the NF-κB target genes, IL-8, MCP-1, and CXCL-1, in HCT116 (g) and HepG2 (h) tumor tissue from vehicle- and various concentrations of RA-V-treated group was determined by quantitative RT-PCR and normalized to GADPH expression. *, p < 0.05; **, p < 0.01; ***, p < 0.001
In total, 2 × 10^6 HCT116 or 3 × 10^6 HepG2 cells were subcutaneously injected into the right dorsal flank of 6- to 8-week-old female athymic nude BALB/c mice. After tumor volumes reached 100 mm^3, the tumor-bearing mice were randomly divided into several groups. The mice bearing HCT116 (n = 8) or HepG2 xenograft tumors (n = 7) were received the intravenous injection of vehicle micelles or various concentrations of RA-V micelles every other day. 5-FU (10 mg/kg) group as positive control. Body weights and tumor volumes were recorded every other day. Tumor volumes were calculated using the following formula: tumor volume (mm^3) = 0.52 × length × width^2. At the end of the experiments, the mice were killed. Tumor xenografts of each mouse were removed and weighed. Part of each tumor tissue was stored at liquid nitrogen for quantitative RT-PCR analysis. […] Serum alanine transaminase(ALT), aspartate transaminase(AST), and creatine kinase(CK) were determined using relevant kits (Nanjing Jiancheng) according to the manufacturer’s specific instructions.

NF-κB-regulated reporter = experiment: NF-κB reporter induced by transfected TRAF2, MyD88, IKKβ or p65 plasmid; assay type: cell-based; conditions: HEK293T; RA-V 48 h
Procedure: To determine where RA-V acts in this pathway, TRAF2, MyD88, IKKβ, or p65 plasmid was transiently transfected into HEK293T cells together with the 5 × κB-lucieferase and pTK-Renilla reporters. […] Western blots were performed to investigate the effect of RA-V on NF-κB-associated proteins in HEK293T cells transfected with the TRAF2, MyD88, or IKKβ plasmid. […] Moreover, we used a computational method to predict where RA-V is likely to act in this pathway.
Fig. 3 RA-V represses NF-κB activation upstream of the IKK protein complex. a RA-V inhibited the TRAF2- and MyD88-induced expression of the NF-κB reporter in a dose-dependent manner. The indicated plasmids were transfected into HEK293T cells together with the 5 × κB-luciferase and pTK-Renilla reporters. Twenty-four hours after transfection, the cells were incubated with various concentrations of RA-V for 48 h before luciferase assays were performed. b RA-V inhibited TRAF2- and MyD88-induced p65 phosphorylation and IκBα phosphorylation in a dose-dependent manner. HEK293T cells were transfected with TRAF2, MyD88, IKKβ, or p65 for 24 h and then treated with various concentrations of RA-V for 48 h. The cell lysates were immunoblotted with the indicated antibodies. c RA-V likely exerts its inhibitory activity on the NF-κB pathway by acting on the TRAF6-TAK1–TAB1/2 complex. […]

[1] = HCT116, n = 8, RA-V micelles i.v. every other day, vs control

Substance: RA-V
- tumor growth rate (tumor volume) (HCT116 xenograft tumors; [1]): significantly reduced
- tumor weight (HCT116 xenograft tumors; [1]): obviously lower
- expression of IL-8, MCP-1, and CXCL-1 in tumor tissue (HCT116 xenograft tumors; HCT116 xenograft, quantitative RT-PCR): remarkable decreased
- NF-κB-regulated reporter expression in cells transfected with IKKβ or p65 (NF-κB-regulated reporter): no effect
- NF-κB-regulated reporter expression in cells transfected with TRAF2 or MyD88 (NF-κB-regulated reporter): dose-dependently suppressed
